Earlier results on 3 compounds are cited in patent US20090214446A1, “CYCLODEXTRIN INCLUSION COMPLEXES AND METHODS OF PREPARING SAME” (CARGILL, INCORPORATED, priority 2005, published 2009).

The conditions of the series: octanol/water.

SMILES strings stand for the structures.

`CC(=O)C(C)=O` [diacetyl]: the lipophilicity (log P) is recorded as −1.34. `CCc1occc(=O)c1O` [ethyl maltol]: the lipophilicity (log P) was 0.30. Consider `C=C(C)[C@H]1CC=C(C)CC1` [limonene], for which the log partition coefficient (log P) was 4.83.
